From US10335372B2, “Compositions with modified nucleases targeted to viral nucleic acids and methods of use for prevention and treatment of viral diseases” (priority 2004, dated 2019)
Where “and” joins values, the source holds several entries; their conditions need not be identical. Identical values can stand only once. Like-named read-outs stand apart in the source and are kept apart here.

Legend:
[1] = Cellular uptake of fluorescamine-labeled RNase I variants; assay type: cell-based; details: fluorescamine label
ssRNA corona virus = assay: Antiviral activity of labeled RNase I variants against ssRNA corona virus; assay type: cell-based
double-stranded RNA = details: physiological salt conditions; double-stranded RNA substrate; cited from earlier work
West Nile virus = assay: Antiviral effect of modified RNase I against West Nile virus in newborn rabbit kidney cells; details: average of four replicate determinations
FMD virus = assay type: cell-based
dsRNA reovirus = assay: Combination of human RNase I and human RNase III against reovirus in HEP-2 cells; assay type: cell-based; details: 200 UA/ml
Procedure: The reovirus stock preparation used in this example has a titer of 5.5 log CPD50/0.1 ml.

[2] = test system: Influenza virus A/Aichi/2/68/H3N2; assay type: in vivo; details: mice, single values
FMDV of O-type = details: guinea pig, in vivo

Substance	Cellular Uptake [OD430 nm] [1]	Average Titer (ssRNA corona virus)	enzymatic activity relative to RNase A (double-stranded RNA)	logTCD50/ml (West Nile virus; 100 UA/ml) [logTCD50/ml]	logTCD50/ml (West Nile virus; 250 UA/ml) [logTCD50/ml]	Titer (FMD virus)	Average Titer (dsRNA reovirus) [logTCD50/0.1 ml]	Titer (dsRNA reovirus; single values)	Titer in lungs ([2]; treatment i.n.)	Titer in lungs ([2]; treatment i.p.)	Survived (FMDV of O-type)	duration of preventive effect after a single injection (FMDV of O-type)	animals that developed FMD (FMDV of O-type; sc)	Survived (FMDV of O-type; record 2)
*RNase I: fluorescamine-labeled human RNase I	110	5.4												
RNase: recombinant / wild-type human RNase I (Examples 22, 30, 31)			about 500 times	7.7	7.0	7.3; 7.1; 6.8 logTCD50/ml	4.0	3.9 logTCD50/0.1 ml and 4.0 logTCD50/0.1 ml and 4.1 logTCD50/0.1 ml	4.5 log TCD50 and 4.0 log TCD50 and 4.3 log TCD50	4.7 log TCD50 and 5.0 log TCD50 and 4.5 log TCD50	40	at least 4 hours	8	32
